According to patent publication EP0298385A2, “Cyctostatic anthracyclin derivatives” (BEHRINGWERKE Aktiengesellschaft, priority 1987, dated 1989):
In brackets after ≈: the same amount, converted by molar mass. Like-named read-outs stand apart in the source and are kept apart here.

Experiments:
[1] = system: L1210 Leukämiezellen; experiment: Colony formation of L1210 leukemia cells in soft agar (cytotoxicity in vitro); type: cell-based, Maus; conditions: for IC50: Mus musculus
Excerpt: Die zytostatische Wirksamkeit der erfindungsgemäßen Verbindungen wurde anhand von L1210 Leukämiezellen der Maus getestet. Hierzu wurde die Koloniebildung von L1210 Leukämiezellen in Agarplatten herangezogen. Diese Methode dient zum Nachweis des Einflusses der Testsubstanzen auf das Wachstumsverhalten der Zellen über 1 Stunde oder über mehrere Generationen. Bei einer Zellzykluszeit von 10-12 Stunden werden dabei in der Testzeit von 7 Tagen etwa 14 aufeinanderfolgende Generationen beobachtet. Die erfindungsgemäßen zytostatisch wirksamen Substanzen bewirken in diesem Test eine Reduktion der zu beobachtenden Koloniezahl gegenüber einer unbehandelten Kontrollprobe.
Verfahrensweise zur Ermittlung der Koloniebildung von L1210 Leukämiezellen in Soft-Agar
500 Leukämiezellen pro Platte wurden mit unterschiedlichen Konzentrationen der Testsubstanz 1 Stunde bei 37°C inkubiert. Anschließend wurden die Zellen zweimal mit McCoy5A-Medium gewaschen und schließlich in Petrischalen nach Zugabe von 0,3 % Agar ausgegossen. Kontrollen wurden lediglich mit frischem Medium inkubiert. Anstelle der einstündigen Inkubation wurden in manchen Fällen unterschiedliche Konzentrationen der Testsubstanzen der oberen Agarschicht zugemischt, um so eine kontinuierliche Exposition der Zellen über die gesamte Inkubationszeit zu erreichen. Nach Erstarren des Agars wurden die Platten im Brutschrank 7 Tage bei 37°C inkubiert (5 Vol. -% CO₂, 95 % relative Luftfeuchtigkeit). Anschließend wurde die Zahl der entstandenen Kolonien mit einem Durchmesser von mehr als 60 µm gezählt. Die Ergebnisse wurden angegeben als Koloniezahl in behandelten Agarplatten in Prozent der unbehandelten Kontrolle. Aus der so erhaltenen Dosiswirkungskurve wurde die IC₅₀ als Maß für die Wirksamkeit der Substanz ermittelt. Die Ergebnisse für die hier beschriebenen Verbindungen im Vergleich zu Adriamycin sind in der nachfolgenden Tabelle 1 zusammengefaßt.
Die Struktur der hergestellten Verbindungen wurde mittels ¹H-NMR- Spektroskopie, UV-Spektroskopie und HPLC-Technik ermittelt. Der Verlauf der Reaktionen wurde, soweit möglich, dünnschichtchromatographisch auf Kieselgel-Fertigplatten verfolgt. Die Ergebnisse der Zytotoxizitäts-Testung gegen L1210-Zellen in vitro sind in Tabelle 1 zusammengefaßt. Tabelle 1

[2] = Stability / hydrolysis of the spacer-bearing anthracyclines in phosphate-buffered saline, HPLC analysis; type: physicochemical
Description: Die jeweilige Verbindung wurde bei einer Konzentration von 1 mg/ml in Acetonitril gelöst und mit Phosphat-gepufferter Kochsalzlösung pH 7.2 im Volumenverhältnis 1:100 verdünnt, wobei eine Konzentration von jeweils 10 µg/ml erhalten wurde. Diese Lösungen wurden jeweils bei 37 °C im Dunkeln inkubiert und 20 µl-Aliquote wurden nach definierten Zeiten mittels der HPLC-Technik untersucht. Die Stabilitäten dieser Verbindungen sind in Fig. 1 graphisch dargestellt.
Verbindung 10 wurde, wie vorstehend beschrieben, unrersucht und mittels HPLC-Technik analysiert.
Verbindung 12 wurde analog zu Verbindung 10 hydrolysiert, wobei jedoch ein pH-Wert von 7,4 verwendet wurde.

[3] = 1 h incubation at 37°C, then washed, colonies counted after 7 days
[4] = continuous exposure in agar, 7 days at 37°C, not differentiated by possible hydrolysis products (footnote a)
[5] = 10 µg/ml in phosphate-buffered saline pH 7.2, 37 °C, dark, releases β-Rhodomycin-I directly and via an intermediate

Compound	IC₅₀-Werte gegenüber L1210-Zellen in vitro, 1h-Inkubation [1, 3]	IC₅₀-Werte gegenüber L1210-Zellen in vitro, Dauerinkubation [1, 4]	Hydrolyse [2, 5]	Hydrolyse ([2]; as for Verbindung 10 but pH 7,4, 37 °C)	IC50 ([1]; L1210, 168 h, continuous exposure in agar, 7 days at 37°C, not differentiated by possible hydrolysis products (footnote a), read-out: IC₅₀-Werte gegenüber L1210-Zellen in vitro, Dauerinkubation) [µg/mL]	IC50 ([1]; L1210, 1 h incubation at 37°C, then washed, colonies counted after 7 days, read-out: IC₅₀-Werte gegenüber L1210-Zellen in vitro, 1h-Inkubation) [µg/mL]
CC[C@@]1(O)C[C@H](O[C@H]2C[C@H](N(C)C)[C@H](OC(=O)c3ccc(N4C(=O)C=CC4=O)cc3)[C@H](C)O2)c2c(O)c3c(c(O)c2[C@H]1O)C(=O)c1cccc(O)c1C3=O [Verbindung 8]	0,5 µg/ml	0,11 µg/ml	analoges Hydrolyseverhalten	–	–	–
4˝-O-(4-Maleimidobenzoyl)-cytorhodin-S [Verbindung 12]	0,0095 µg/ml	0,0028 µg/ml	–	analoges Hydrolyseverhalten	–	–
CC[C@@]1(O)C[C@H](O[C@H]2C[C@H](N(C)C)[C@H](OC(=O)CCN3C(=O)C=CC3=O)[C@H](C)O2)c2c(O)c3c(c(O)c2[C@H]1O)C(=O)c1cccc(O)c1C3=O [Verbindung 11, 7-O-[4′-O-(3-Maleimidopropionyl)-α-L-rhodosaminyl]-βrhodomycinon]	0,11 µg/ml	0,028 µg/ml	analoges Hydrolyseverhalten	–	–	–
COc1cccc2c1C(=O)c1c(O)c3c(c(O)c1C2=O)C[C@@](O)(C(=O)CO)C[C@@H]3O[C@H]1C[C@H](N)[C@H](O)[C@H](C)O1 [Adriamycin, reference compound]	–	–	–	–	0.02 (≈ 0.0368 µM)	0.04 (≈ 0.0736 µM)
CCC1(O)CC(OC2CC(N(C)C)C(OC(=O)c3ccc(N4C(=O)C=CC4=O)cc3OC(C)=O)C(C)O2)c2c(O)c3c(c(O)c2C1O)C(=O)c1cccc(O)c1C3=O [Verbindung 10, 7-O-[4′-O-(2-Acetoxy-4-maleimidobenzoyl)-α-L-rhodosaminyl]-β-rhodomycinon]	–	–	hydrolytisch zersetzt	–	–	–
CC[C@@]1(O)C[C@H](O[C@H]2C[C@H](N(C)C)[C@H](O)[C@H](C)O2)c2c(O)c3c(c(O)c2[C@H]1O)C(=O)c1cccc(O)c1C3=O [β-Rhodomycin-I, 7-O-(α-L-Rhodosaminyl)-β-rhodomycinon, reference compound]	0,05 µg/ml	0,022 µg/ml	–	–	–	–
CC[C@@]1(O)C[C@H](O[C@H]2C[C@H](N(C)C)[C@H](O[C@H]3C[C@@H]4O[C@H]5CC(=O)[C@H](C)O[C@H]5O[C@@H]4[C@H](C)O3)[C@H](C)O2)c2c(O)c3c(c(O)c2[C@H]1O[C@H]1C[C@H](N(C)C)[C@H](O)[C@H](C)O1)C(=O)c1cccc(O)c1C3=O [Cytorhodin-S, reference compound]	0,013 µg/ml	0,003 µg/ml	–	–	–	–
